Earlier results as cited in patent publication US10052352B2, “Therapeutic application of parenteral krill oil” (STABLE SOLUTIONS LLC, priority 2011, dated 2018).

Settings: free acid

## O=C(c1ccccc1)c1ccc2n1CCC2C(=O)O (stereo not shown) [ketorolac]
  water solubility: highly water insoluble
